# pIC50: −log10 of the molar value. Read-outs that look alike come from different tables or passages of the source.
# What was measured:
# [1] = molecular target: T1, 11β-HSD1 (Homo sapiens, UniProt P28845)
# [2] = molecular target: CYP2C19 (Homo sapiens, UniProt P33261); assay: Biological Test Example 8: CYP2C19 inhibition (diazepam N-demethylation); assay type: in vitro ADME
# [3] = molecular target: T2, CYP2C9 (Homo sapiens, UniProt P11712); assay: Biological Test Example 7: CYP2C9 inhibition (naproxen O-demethylation); assay type: in vitro ADME
# T2 construct: purchased Invitrogen 2859; host or cells: insect cells infected with baculovirus (microsomes)
# T2 sequence (P11712 whole entry): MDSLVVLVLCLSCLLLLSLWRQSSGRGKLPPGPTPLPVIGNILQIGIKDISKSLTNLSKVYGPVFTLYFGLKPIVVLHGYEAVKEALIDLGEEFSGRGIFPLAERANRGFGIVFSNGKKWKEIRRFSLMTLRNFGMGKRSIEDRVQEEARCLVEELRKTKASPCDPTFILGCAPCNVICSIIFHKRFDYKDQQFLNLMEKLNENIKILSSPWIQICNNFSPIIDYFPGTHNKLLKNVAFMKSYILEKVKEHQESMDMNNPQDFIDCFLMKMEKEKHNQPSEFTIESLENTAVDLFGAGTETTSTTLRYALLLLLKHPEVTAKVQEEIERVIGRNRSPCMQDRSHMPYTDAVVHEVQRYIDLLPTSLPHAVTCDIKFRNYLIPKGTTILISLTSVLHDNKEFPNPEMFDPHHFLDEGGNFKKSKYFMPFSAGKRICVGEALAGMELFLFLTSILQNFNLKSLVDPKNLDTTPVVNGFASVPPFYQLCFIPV
# [4] = molecular target: T2, CYP2C9; assay: Biological Test Example 9: CYP2C9 inhibition (Invitrogen kit, fluorogenic OOMR); assay type: in vitro ADME
# [5] = molecular target: CYP3A4 (Homo sapiens, UniProt P08684); assay: Biological Test Example 6: CYP3A4 inhibition (erythromycin N-demethylation); assay type: in vitro ADME
# Chain of CYP3A4 (P08684 whole entry): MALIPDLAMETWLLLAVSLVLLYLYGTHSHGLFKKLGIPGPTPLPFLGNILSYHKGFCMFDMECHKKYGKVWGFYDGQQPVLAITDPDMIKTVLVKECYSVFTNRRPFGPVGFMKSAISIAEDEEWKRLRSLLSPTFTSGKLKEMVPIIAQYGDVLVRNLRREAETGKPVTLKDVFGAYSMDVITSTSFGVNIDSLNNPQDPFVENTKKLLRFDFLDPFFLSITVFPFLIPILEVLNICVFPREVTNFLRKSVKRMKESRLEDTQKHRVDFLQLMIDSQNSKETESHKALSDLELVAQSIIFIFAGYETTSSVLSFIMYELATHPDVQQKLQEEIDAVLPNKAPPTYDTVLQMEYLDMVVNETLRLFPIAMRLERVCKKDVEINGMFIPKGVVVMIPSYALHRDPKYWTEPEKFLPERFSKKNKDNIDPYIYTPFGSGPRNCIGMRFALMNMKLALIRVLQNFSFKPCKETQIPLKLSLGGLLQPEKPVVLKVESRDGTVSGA
# [6] = Biological Test Example 5: fraction unbound in human plasma (equilibrium dialysis); assay type: in vitro ADME
# Description: Plasma protein binding of compounds was determined with Equilibrium Dialysis of spiked plasma against compound free dextrane buffer using a dialysis membrane with mass cutoff of 5000 Da. Compound concentrations in plasma and buffer after incubation were measured using HPLC/Mass spectrometry.
# [7] = molecular target: T1, 11β-HSD1; assay: Biological Test Example 4: microsomal 11β-HSD1 in the presence of 50% human plasma
# [8] = molecular target: T1, 11β-HSD1; assay: biochemical; conditions: for IC50: Biological Test Example 1 IC50 (nM); for pIC50: IC50 Range, Biological Test Example 1; for inhibition at 0.1 µM: read-out: Average % inhibition at 100 nM
# T1 sequence (P28845 whole entry): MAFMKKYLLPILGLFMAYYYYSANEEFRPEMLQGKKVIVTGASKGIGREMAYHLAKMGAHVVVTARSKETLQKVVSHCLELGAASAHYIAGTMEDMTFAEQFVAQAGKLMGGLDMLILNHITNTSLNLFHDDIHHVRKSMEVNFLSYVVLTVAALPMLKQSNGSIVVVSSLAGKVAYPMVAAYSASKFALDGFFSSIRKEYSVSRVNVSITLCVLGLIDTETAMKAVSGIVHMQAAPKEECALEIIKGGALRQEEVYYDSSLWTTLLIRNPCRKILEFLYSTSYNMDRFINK
# Chain of CYP2C19 (P33261 whole entry): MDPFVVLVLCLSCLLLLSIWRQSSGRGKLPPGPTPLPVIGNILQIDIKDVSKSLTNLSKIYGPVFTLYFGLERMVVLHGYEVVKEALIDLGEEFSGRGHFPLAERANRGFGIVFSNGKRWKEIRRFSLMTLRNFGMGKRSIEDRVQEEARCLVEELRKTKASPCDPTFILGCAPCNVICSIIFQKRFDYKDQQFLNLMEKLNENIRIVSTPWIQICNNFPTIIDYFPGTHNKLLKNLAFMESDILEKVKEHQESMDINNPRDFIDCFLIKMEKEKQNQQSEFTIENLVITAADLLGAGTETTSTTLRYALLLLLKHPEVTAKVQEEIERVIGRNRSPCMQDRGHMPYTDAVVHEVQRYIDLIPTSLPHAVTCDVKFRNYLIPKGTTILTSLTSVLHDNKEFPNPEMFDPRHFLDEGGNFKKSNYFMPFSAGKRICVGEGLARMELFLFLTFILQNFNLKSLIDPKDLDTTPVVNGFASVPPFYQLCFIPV
SMILES,Average % inhibition at 100 nM ([1]; 100 nM) [%],pIC50 ([1]; read-out: Biological Test Example 1 IC50),"pIC50 ([1]; read-out: IC50 Range, Biological Test Example 1)",pIC50 [2],pIC50 [3],pIC50 [4],pIC50 [5],Biological Test Example 5 (%) [6] [%],pIC50 [7],IC50 [8] [nM],pIC50 [8],inhibition at 0.1 µM [8] [%]
"Cc1cc(-c2ccc([C@H](C)N3CCC(CCN4CCCS4(=O)=O)(c4ccccc4)OC3=O)cc2)ccn1 (stereo in doubt) [EXAMPLE 118, (R)-3-((S)-1-(4-(2-methylpyridin-4-yl)phenyl)ethyl)-6-phenyl-6-(2-(1,1-dioxoisothiazolidin-2-yl)ethyl)-1,3-oxazinan-2-one]",86.3,7.72,> 7.00,,,,,,,,,
"Cc1ncc(-c2ccc([C@H](C)N3CC[C@](CC(C)(C)O)(c4ccccc4)OC3=O)cc2)cn1 [EXAMPLE 149, (S)-6-(2-hydroxy-2-methylpropyl)-3-((S)-1-(4-(2-methylpyrimidin-5-yl)phenyl)ethyl)-6-phenyl-1,3-oxazinan-2-one]",,,,< 4.30,< 4.30,4.76,< 4.30,2.7,,,,
"C[C@@H](c1ccc(-c2ccc(F)cn2)cc1)N1CC[C@](CC(C)(C)O)(c2ccccc2)OC1=O [EXAMPLE 136, (S)-3-((S)-1-(4-(5-fluoropyridin-2-yl)phenyl)ethyl)-6-(2-hydroxy-2-methylpropyl)-6-phenyl-1,3-oxazinan-2-one]",,,,4.61,4.70,5.02,4.62,0.3,,,,
"COc1ccc(-c2ccc([C@H](C)N3CC[C@](CCC(N)=O)(c4ccccc4)OC3=O)cc2)cn1 [EXAMPLE 52, 3-((R)-3-((S)-1-(4-(6-methoxypyridin-3-yl)phenyl)ethyl)-2-oxo-6-phenyl-1,3-oxazinan-6-yl)propanamide]",,,,,,,< 4.30,1.8,7.98,1.1,> 7.00,94.5
"Cc1ccc(-c2ccc([C@H](C)N3CC[C@](CC(C)(C)O)(c4ccccc4)OC3=O)cc2)nn1 [EXAMPLE 134, (S)-6-(2-hydroxy-2-methylpropyl)-3-((S)-1-(4-(6-methylpyridazin-3-yl)phenyl)ethyl)-6-phenyl-1,3-oxazinan-2-one]",,,,< 4.30,< 4.30,< 4.52,< 4.30,10.5,,,,

# Results, then the molecule that gave them:
Average % inhibition at 100 nM ([1]; 100 nM) [%],pIC50 ([1]; read-out: Biological Test Example 1 IC50),"pIC50 ([1]; read-out: IC50 Range, Biological Test Example 1)",pIC50 [2],pIC50 [3],pIC50 [4],pIC50 [5],Biological Test Example 5 (%) [6] [%],pIC50 [7],IC50 [8] [nM],pIC50 [8],inhibition at 0.1 µM [8] [%],SMILES
,,,4.62,4.65,,4.90,2,,,,,"C[C@@H](c1ccc(-c2ccc(C#N)cn2)cc1)N1CC[C@](CC(C)(C)O)(c2ccccc2)OC1=O [EXAMPLE 138, 6-(4-((S)-1-((S)-6-(2-hydroxy-2-methylpropyl)-2-oxo-6-phenyl-1,3-oxazinan-3-yl)ethyl)phenyl)nicotinonitrile]"
,,,5.52,< 4.30,5.01,4.93,1.9,7.67,2.5,> 7.00,97.9,"C[C@@H](c1ccc(-c2cnccn2)cc1)N1CC[C@](CC(C)(C)O)(c2ccccc2)OC1=O [EXAMPLE 130, (S)-6-(2-hydroxy-2-methylpropyl)-6-phenyl-3-((S)-1-(4-(pyrazin-2-yl)phenyl)ethyl)-1,3-oxazinan-2-one]"
,,,< 4.30,< 4.30,5.33,5.01,2,8.14,0.8,> 7.00,97.6,"C[C@@H](c1ccc(-c2ccc(C#N)cn2)cc1)N1CC[C@](CC(C)(C)O)(c2ccc(F)cc2)OC1=O [EXAMPLE 111, 6-(4-((S)-1-((S)-6-(4-fluorophenyl)-6-(2-hydroxy-2-methylpropyl)-2-oxo-1,3-oxazinan-3-yl)ethyl)phenyl)nicotinonitrile]"

# Reference: patent US8569292B2, “Cyclic inhibitors of 11β-hydroxysteroid dehydrogenase 1” (Vitae Pharmaceuticals, Inc., priority 2008, dated 2013)
